Data: BindingDB's records for doi:10.1021/jm051187d (Unimore, 2006)

Molecular target: Thymidylate synthase (Escherichia coli (strain K12), UniProt P0A884)
Assay: Thymidylate Synthase (TS) Assay
Method: TS was assayed spectrophotometrically in the reaction buffer solution containing (6R, 6S)-5, 10-CH2H4folate. The reaction was initiated by the addition of an amount of enzyme yielding a change in absorbance at 340 nm of 0.016/min in the absence of inhibitor. Ki values were obtained from the linear least-squares fit of the residual activity as a function of inhibitor concentration, using suitable equations for competitive inhibition.

Chain of Thymidylate synthase (P0A884 whole entry): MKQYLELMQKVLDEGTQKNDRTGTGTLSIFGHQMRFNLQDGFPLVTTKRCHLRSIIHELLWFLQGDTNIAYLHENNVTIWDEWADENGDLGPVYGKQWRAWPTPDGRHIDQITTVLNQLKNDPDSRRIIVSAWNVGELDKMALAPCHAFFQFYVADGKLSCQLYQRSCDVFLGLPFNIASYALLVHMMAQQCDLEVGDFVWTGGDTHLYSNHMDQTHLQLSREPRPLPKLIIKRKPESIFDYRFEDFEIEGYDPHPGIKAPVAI

- Ki: > 11 mM
Structure (SMILES): O=C1OC(c2cc(Br)c(O)c(Br)c2)(c2cc(Br)c(O)c(Br)c2)c2cccc3cccc1c23 [4,4-bis(3,5-dibromo-4-hydroxyphenyl)-3-oxatricyclo[7.3.1.0^{5,13}]trideca-1(12),5,7,9(13),10-pentaen-2-one]
